In patent US11524956B2, “Alkyne substituted quinazoline compound and methods of use” (Newgen Therapeutics, Inc., priority 2011, dated 2022):
Read-outs that look alike come from different tables or passages of the source.

What was measured:
NCI-N87 xenograft = experiment: In vivo efficacy in NCI-N87 xenograft mouse model; details: for RTV T/C / tumor growth inhibition: day-7 after treatment
Experimental: NCI-N87 cell line was purchased from ATCC (American Type Culture Collection) and was cultured in RPMI1640+10% FBS+1% P/S antibiotics.
Male Balb/c nude mice, 6-8 week, 18±2 g (supplier: Shanghai SLAC Laboratory Animal Co. Ltd.) were used for the experiment. The purchased mice were adapted to the environment for 7 days before use, and were housed at 22-25° C. with humidity 40-70%, and light cycle with fluorescent light for 12-hour light (8:00-20:00) 12-hour dark. The mice have free access to food and water.
The cancer cells (NCI-N87) were implanted subcutaneous into the nude mice (right flank) with 5.0×10^6 cells in 0.1 ml PBS (50 mice). When the tumor size reaches a volume of 200 (150-200) mm^3, the tumor-bearing nude mice were randomly assigned into groups (10 mice/group), one group was served as vehicle, one group was administrated with Lapatinib ditosylate monohydrate (80 mg/kg, free base of Lapatinib, not salt, p.o. […]). The other two groups were administrated with NT113 (also referred to as KID 113) ((15 and 30 mg/kg, p.o.q.d, respectively). The administration period lasted for 4 weeks.
The mice were monitored twice daily for appearance and behavior, and for signs of morbidity and/or mortality. The tumor volume was measured twice a week, and the body weight was measured immediately before measuring the tumor volume throughout the whole study.
At end of the experiment (compound administration for four weeks), all the tumor-bearing mice were sacrificed by cervical dislocation under deep anesthesia. The tumor mass was resected, and weighed.
Tumor sizes were measured twice weekly in two dimensions using a caliper, and the volume was expressed in mm^3 using the formula: V=½×a×b^2 where a and b are the long and short diameters of the tumor, respectively. The tumor mass was weighed at the end of the experiment after harvested.
V=½×a×b^2 (a, h is maximum and minimum diameters respectively).
RTV (Relative Tumor Volume)=Vt/Vo • Vo is the tumor volume when the test article is initial administrated • Vt is the tumor volume of every measurement day after test article administration
T/C (%)=TRTV/CRTV×100% • TRTV: RTV of test article-treatment group; CRTV: RTV of control group Inhibition rate (%)=(average tumor volume of control group average cancer volume of test article treatment group)/average tumor volume of control group×100%
The tumor-bearing mice were treated for 4 weeks with different doses of KU (15 mg/kg, 30 mg/kg, […]), qd) and Lapatinib KUA-1, 80 mg/kg, p.o., bid, 7 days/week. At the day-7 after treatment, the RTV TIC KU113 (15 mg/kg, 30 mg/kg) groups were <30%, and the tumor growth inhibition was >70%. but the RTV TIC was 31% and tumor growth inhibition rat was 69% in the lapatinib group. The same result was observed as well when it comes to the tumor weight. On day 28 after treatment, all the tumor-bearing mice were sacrificed, and all the tumor masses were harvested to weigh.

NCI-N87 cells = experiment: Anti-proliferation assay of NCI-N87 cells (CCK-8); type: cell-based; details: Homo sapiens, 72h
Experimental: The anti-proliferative assays were performed in triplicates. 3000 cell/well of N87 cells were seeded in 96-well plate, and the cells were incubated for 24h at 37° C. to allow adherence. For the cell proliferation assay, N87 cells were cultured in full cell culture medium containing 0.3% v/v DMSO. A serials concentration of the tested compound (concentration range: 30 uM to 0.16 nM, 5-fold dilution) were added to the 96-welt plate. The incubation was continued for 72h. The culture medium was then removed, and the cell viability was measured by using CCK-8 cell proliferation kit as described in manual provided by the manufacturer. The log of the fractional growth inhibition was plotted against the log of the drug concentration, and the IC50 values were interpolated from the resulting linear regression curve fit. The IC50 value measured for Compound NT113 is <100 nM.

EGFR kinase = EGFR kinase (Homo sapiens (Human), UniProt P00533); experiment: Kinase assay for EGFR (TR-FRET, LanthaScreen); type: biochemical; details: read-out: Kinase inhibition IC50 (nM) EGFR
EGFR kinase, sequence (P00533 668-1210): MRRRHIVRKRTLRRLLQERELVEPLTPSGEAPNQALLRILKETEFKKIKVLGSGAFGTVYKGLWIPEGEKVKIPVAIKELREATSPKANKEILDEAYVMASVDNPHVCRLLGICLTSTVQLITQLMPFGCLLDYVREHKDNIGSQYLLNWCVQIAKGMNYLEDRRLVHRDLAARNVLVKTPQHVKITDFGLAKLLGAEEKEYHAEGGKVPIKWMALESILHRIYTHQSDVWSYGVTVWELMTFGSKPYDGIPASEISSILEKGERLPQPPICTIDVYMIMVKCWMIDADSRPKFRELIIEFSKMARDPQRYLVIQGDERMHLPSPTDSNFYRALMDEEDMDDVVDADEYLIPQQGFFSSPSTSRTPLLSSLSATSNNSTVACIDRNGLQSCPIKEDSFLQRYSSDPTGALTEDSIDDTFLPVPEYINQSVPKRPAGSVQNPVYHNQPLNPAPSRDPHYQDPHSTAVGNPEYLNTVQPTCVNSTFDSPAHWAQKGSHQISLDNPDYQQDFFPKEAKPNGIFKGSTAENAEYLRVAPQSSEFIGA
Experimental: The extent to which the compounds of the present invention modulate EGFR kinase activity can be determined using time-resolved Fret (TR-FRET) assay (LanthaScreen® kinase activity assay, from InVitrogen). The assay employs EGFR kinase (PV3872, Invitrogen), Tb-Py20 antibody (PV3552, InVitrogen) and fluorescein-poly GT (PV3610, InVitrogen).
The assay is performed in a Black 384-well plate (available from Corning). EGFR kinase (is diluted in TR-FRET Dilution Buffer (PV3189, InVitrogen) at concentration of 0.4 ug/ml as stock solution, and then 2-fold serial diluted. Addition of 1 mM ATP initiated the reaction, and the reaction is incubated for […] at room temperature. 10 μL of the Tb-antibody (from InVitrogen)+EDTA (from InVitrogen) solution prepared was added to each well of the assay plate and mix briefly, and incubated for 30 min. The signal is monitored by using M5 microplate reader (Ex=332 nm, Em=488 nm and 518 nm). Each compound is tested in duplicate wells. EGFR without compound is used as control. Staurosporine (available from Sigma) is used as positive control compound. Inhibition was calculated as percentage of the EGFR activity (without compound).

BT474 cells = experiment: Cell proliferation inhibition assay for BT474 (CCK-8); type: cell-based; details: Homo sapiens, BT-474; 72h
Experimental: Human breast cancer BT474 cells was cultured in low glucose DMEM (Life Technologies 12320-032) containing 10% fetal bovine serum (FBS) at 37° C. in a humidified 10% CO2, 90% air incubator. Cells were harvested using trypsin EDTA, counted using a haemocytometer, and plated 10000 cell/well in a 96-well clear tissue culture plate. The cells were incubated for 24 h at 37° C. to allow adherence. A serials of concentrations of each compound (ranging from 30 um to 0.16 nM, 5-fold dilution) in 96-well plate, and incubated for 72h. Each concentration was tested in triplicate wells. During the cell proliferation assay, BT474 cells were cultured in low-glucose DMEM containing 5% FBS, 50 ug/ml gentamicin, and 0.3% v/v DMSO. The culture medium was removed via aspiration, and the cell viability was detected by using CCK-8 cell proliferation kit. The IC50 value measured for each compound in Examples 1 to 7 is <100 nM.

ErbB2 kinase protein = ErbB2 kinase protein (Homo sapiens (Human), UniProt P04626); experiment: Kinase assay for ErbB2; type: biochemical; details: read-out: Kinase inhibition IC50 (nM) ErbB2
ErbB2 kinase protein, sequence (P04626 23-1255): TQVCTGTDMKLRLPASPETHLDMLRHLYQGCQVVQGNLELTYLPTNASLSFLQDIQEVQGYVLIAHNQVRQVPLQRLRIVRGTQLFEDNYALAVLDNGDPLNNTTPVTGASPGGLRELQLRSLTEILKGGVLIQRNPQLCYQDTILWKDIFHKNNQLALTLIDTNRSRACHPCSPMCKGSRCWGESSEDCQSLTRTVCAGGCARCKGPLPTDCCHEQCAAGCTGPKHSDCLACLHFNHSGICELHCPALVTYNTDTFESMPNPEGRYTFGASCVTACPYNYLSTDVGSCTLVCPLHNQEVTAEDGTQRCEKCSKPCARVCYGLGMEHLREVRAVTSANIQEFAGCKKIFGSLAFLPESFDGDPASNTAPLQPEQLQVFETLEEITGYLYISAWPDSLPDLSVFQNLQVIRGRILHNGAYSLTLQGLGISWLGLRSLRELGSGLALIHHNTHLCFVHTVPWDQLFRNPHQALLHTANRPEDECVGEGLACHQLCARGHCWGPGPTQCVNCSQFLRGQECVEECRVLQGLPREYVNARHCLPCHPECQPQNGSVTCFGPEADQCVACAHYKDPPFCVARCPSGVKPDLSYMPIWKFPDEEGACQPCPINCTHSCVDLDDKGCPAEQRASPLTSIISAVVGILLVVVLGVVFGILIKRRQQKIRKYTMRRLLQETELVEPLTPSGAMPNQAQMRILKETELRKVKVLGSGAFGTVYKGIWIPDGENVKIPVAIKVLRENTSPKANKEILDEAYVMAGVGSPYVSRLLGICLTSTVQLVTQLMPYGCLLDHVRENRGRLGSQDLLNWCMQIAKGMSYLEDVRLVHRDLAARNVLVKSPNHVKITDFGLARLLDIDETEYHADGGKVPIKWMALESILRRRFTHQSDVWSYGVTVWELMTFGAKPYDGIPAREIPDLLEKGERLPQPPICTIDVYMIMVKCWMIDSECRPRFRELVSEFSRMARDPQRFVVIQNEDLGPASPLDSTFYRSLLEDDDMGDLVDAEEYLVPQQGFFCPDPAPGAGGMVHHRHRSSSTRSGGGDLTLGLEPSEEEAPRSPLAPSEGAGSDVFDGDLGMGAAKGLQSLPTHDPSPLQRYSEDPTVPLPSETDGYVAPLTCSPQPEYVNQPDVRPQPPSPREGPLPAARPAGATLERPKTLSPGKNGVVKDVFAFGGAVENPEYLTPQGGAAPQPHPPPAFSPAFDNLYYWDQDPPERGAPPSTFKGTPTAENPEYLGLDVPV
Experimental: The assay is performed similarly to the kinase assay for […] as described above, except ErbB2 kinase protein is used instead of EGFR kinase protein.

CN(C)C/C=C/C(=O)Nc1cc2c(Nc3ccc(F)c(Cl)c3)ncnc2cc1C#C[C@@H]1[C@H]2COC[C@@H]12 [Example 4, (E)-N-(4-(3-chloro-4-fluorophenylamino)-7-(2-((1R,5S,6s)-3-oxa-bicyclo[3.1.0]hexan-6-yl)ethynyl)quinazolin-6-yl)-4-(dimethylamino)but-2-enamide]
tolerability (side effect) (NCI-N87 xenograft; 15 mg/kg, po, qd): without predefined side effect
body weight after dosing was stopped (NCI-N87 xenograft; 30 mg/kg group, by day 28): recovered to normal
body weight effect (NCI-N87 xenograft; 30 mg/kg, p.o., qd, 7 days/week): body weight loss
RTV T/C (NCI-N87 xenograft; 15 mg/kg po qd): < 30%
tumor growth inhibition (NCI-N87 xenograft; 15 mg/kg po qd): > 70%
RTV T/C (NCI-N87 xenograft; 30 mg/kg po qd): < 30%
tumor growth inhibition (NCI-N87 xenograft; 30 mg/kg po qd): > 70%
IC50 (NCI-N87 cells; read-out: Cell Proliferation Inhibition IC50 (nM) NCI-N87): < 100 nM
IC50 (NCI-N87 cells; read-out: IC50 NCI-N87 anti-proliferation): < 100 nM
IC50 (EGFR kinase): < 100 nM
IC50 (BT474 cells): < 100 nM
IC50 (ErbB2 kinase protein): < 100 nM
